Measurements from ChEMBL document CHEMBL1770074, “Syntheses and characterization of novel oxoisoaporphine derivatives as dual inhibitors for cholinesterases and amyloid beta aggregation” (Eur J Med Chem, 2011).
pIC50: −log10 of the molar value.

Columns and labels:
Acetylcholinesterase = Acetylcholinesterase (Electrophorus electricus, UniProt O42275)
Description: Inhibition of electric eel AChE by Ellman's method

Cholinesterase = Cholinesterase (Equus caballus, UniProt P81908)
Description: Inhibition of equine serum BChE by Ellman's method

SH-SY5Y = experiment: cells; details: Homo sapiens, 48 h
Description: Cytotoxicity against human SH-SY5Y cells assessed as cell viability after 48 hrs by MTT assay

[1] = Inhibition of amyloid beta (1 to 42) aggregation assessed as inhibition of fibril formation at 10 uM by thioflavin-T fluorescent dye assay

Sequence of Acetylcholinesterase (O42275 whole entry): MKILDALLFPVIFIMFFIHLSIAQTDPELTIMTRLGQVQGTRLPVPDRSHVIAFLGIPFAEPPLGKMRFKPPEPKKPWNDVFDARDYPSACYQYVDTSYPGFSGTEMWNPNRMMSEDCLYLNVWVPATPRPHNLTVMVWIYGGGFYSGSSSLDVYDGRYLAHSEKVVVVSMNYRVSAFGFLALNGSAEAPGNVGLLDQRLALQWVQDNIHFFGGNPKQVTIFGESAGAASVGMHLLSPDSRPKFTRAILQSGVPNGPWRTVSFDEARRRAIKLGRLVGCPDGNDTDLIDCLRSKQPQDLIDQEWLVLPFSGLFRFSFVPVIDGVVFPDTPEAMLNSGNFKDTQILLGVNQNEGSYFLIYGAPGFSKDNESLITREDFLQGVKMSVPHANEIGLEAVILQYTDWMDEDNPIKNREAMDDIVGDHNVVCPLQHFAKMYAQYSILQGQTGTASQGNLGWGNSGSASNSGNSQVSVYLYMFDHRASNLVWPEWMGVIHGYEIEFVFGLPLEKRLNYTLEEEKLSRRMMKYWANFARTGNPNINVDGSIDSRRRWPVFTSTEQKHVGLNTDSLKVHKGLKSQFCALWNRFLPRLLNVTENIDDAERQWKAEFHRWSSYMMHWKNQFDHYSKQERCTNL
Sequence of Cholinesterase (P81908 whole entry): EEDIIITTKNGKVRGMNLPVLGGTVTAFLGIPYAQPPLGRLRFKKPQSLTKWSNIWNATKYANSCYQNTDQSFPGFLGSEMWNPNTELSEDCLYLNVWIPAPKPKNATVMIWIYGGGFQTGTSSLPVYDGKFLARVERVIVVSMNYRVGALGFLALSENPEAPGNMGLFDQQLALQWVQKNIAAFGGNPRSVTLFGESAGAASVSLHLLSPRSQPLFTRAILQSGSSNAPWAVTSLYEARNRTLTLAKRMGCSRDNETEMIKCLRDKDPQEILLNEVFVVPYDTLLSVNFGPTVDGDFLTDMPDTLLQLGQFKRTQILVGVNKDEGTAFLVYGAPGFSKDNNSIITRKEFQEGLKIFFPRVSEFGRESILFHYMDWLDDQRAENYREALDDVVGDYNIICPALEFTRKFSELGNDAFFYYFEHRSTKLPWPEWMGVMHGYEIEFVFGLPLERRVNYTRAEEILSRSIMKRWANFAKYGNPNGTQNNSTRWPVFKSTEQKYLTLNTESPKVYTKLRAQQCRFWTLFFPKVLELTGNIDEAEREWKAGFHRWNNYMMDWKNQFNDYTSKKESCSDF

For `O=C1c2ccccc2-c2ncc(OCCN3CCCC3)c3cccc1c23`, the pIC50 (Acetylcholinesterase) was 6.33, the pIC50 (Cholinesterase) was 6.10 and the pIC50 (SH-SY5Y) was 4.92. It also gave an inhibition [1] of 31.8%.

With `O=C1c2ccccc2-c2ncc(OCCN3CCCCC3)c3cccc1c23` the pIC50 (Acetylcholinesterase) was 6.43, the pIC50 (Cholinesterase) was 6.14 and the pIC50 (SH-SY5Y) was < 4.60. The inhibition [1] was 34.2%.

With `O=C1c2ccccc2-c2nccc3c(OCCN4CCCCC4)ccc1c23` the pIC50 (Acetylcholinesterase) was 7.06, the pIC50 (Cholinesterase) was 5.66 and the pIC50 (SH-SY5Y) was < 4.60. For the same compound, the inhibition [1] was 38.9%.

With `CN(C)CCCNc1ccc2c3c(nccc13)-c1ccccc1C2=O` the pIC50 (Acetylcholinesterase) was 6.40, the pIC50 (Cholinesterase) was 5.47 and the pIC50 (SH-SY5Y) was < 4.60. It also gave an inhibition [1] of 57.6%.

`CCN(CC)CCOc1cnc2c3c(cccc13)C(=O)c1ccccc1-2` gave a pIC50 (Acetylcholinesterase) of 6.15, a pIC50 (Cholinesterase) of 5.83 and a pIC50 (SH-SY5Y) of 5.04. The inhibition [1] was 3.88%.

In the case of `C[N+](C)(C)CCCC(=O)Nc1ccc2c(c1)C(=O)c1cccc3ccnc-2c13`, the pIC50 (SH-SY5Y) was < 4.60 and the inhibition [1] was 58.6%.

For `CCN(CC)CCOc1ccc2c3c(nccc13)-c1ccccc1C2=O`, the pIC50 (Acetylcholinesterase) was 6.70, the pIC50 (Cholinesterase) was 5.51 and the pIC50 (SH-SY5Y) was < 4.60. The inhibition [1] was 10.7%.

For `CN1CCN(CCOc2ccc3c4c(nccc24)-c2ccccc2C3=O)CC1`, the pIC50 (Acetylcholinesterase) was 6.36, the pIC50 (Cholinesterase) was 5.56 and the pIC50 (SH-SY5Y) was < 4.60. The inhibition [1] was 43%.

`CN(C)CCOc1cnc2c3c(cccc13)C(=O)c1ccccc1-2` gave a pIC50 (Acetylcholinesterase) of 5.81, a pIC50 (Cholinesterase) of 5.79 and a pIC50 (SH-SY5Y) of 4.79. The inhibition [1] was 14.3%.

For `O=C1c2ccccc2-c2nccc3c(OCCCN4CCCCC4)ccc1c23`, the pIC50 (Acetylcholinesterase) was 7.66, the pIC50 (Cholinesterase) was 6.04 and the pIC50 (SH-SY5Y) was < 4.60. It also gave an inhibition [1] of 40.1%.

For `C[N+]1(CCC(=O)Nc2ccc3c(c2)C(=O)c2cccc4ccnc-3c24)CCCC1`, the pIC50 (SH-SY5Y) was 5.67 and the inhibition [1] was 85.9%.

For `C[N+](C)(C)CCC(=O)Nc1ccc2c(c1)C(=O)c1cccc3ccnc-2c13`, the pIC50 (SH-SY5Y) was < 4.60 and the inhibition [1] was 80.1%.

With `CCN(CC)CCCOc1ccc2c3c(nccc13)-c1ccccc1C2=O` the pIC50 (Acetylcholinesterase) was 7.46, the pIC50 (Cholinesterase) was 5.57 and the pIC50 (SH-SY5Y) was < 4.60. It also gave an inhibition [1] of 14%.

`CN(C)CCCC(=O)Nc1ccc2c(c1)C(=O)c1cccc3ccnc-2c13` gave a pIC50 (SH-SY5Y) of 5.49 and an inhibition [1] of 65.2%.

For `O=C(CN1CCCC1)Nc1ccc2c(c1)C(=O)c1cccc3ccnc-2c13`, the pIC50 (SH-SY5Y) was 5.27 and the inhibition [1] was 45.4%.

In the case of `CN(C)CCC(=O)Nc1ccc2c(c1)C(=O)c1cccc3ccnc-2c13`, the pIC50 (SH-SY5Y) was 5.38 and the inhibition [1] was 69.8%.

For `C[N+]1(CCOc2cnc3c4c(cccc24)C(=O)c2ccccc2-3)CCCCC1`, the pIC50 (Acetylcholinesterase) was 7.02, the pIC50 (Cholinesterase) was 6.59 and the pIC50 (SH-SY5Y) was < 4.60. For the same compound, the inhibition [1] was 50.9%.

For `C[N+]1(CC(=O)Nc2ccc3c(c2)C(=O)c2cccc4ccnc-3c24)CCCC1`, the pIC50 (SH-SY5Y) was < 4.60 and the inhibition [1] was 52%.

In the case of `CC[N+](C)(CC)CCOc1cnc2c3c(cccc13)C(=O)c1ccccc1-2`, the pIC50 (Acetylcholinesterase) was 6.59, the pIC50 (Cholinesterase) was 6.15 and the pIC50 (SH-SY5Y) was < 4.60. For the same compound, the inhibition [1] was 45.5%.

For `CC[N+](C)(CC)CCC(=O)Nc1ccc2c(c1)C(=O)c1cccc3ccnc-2c13`, the pIC50 (SH-SY5Y) was < 4.60 and the inhibition [1] was 82.7%.

In the case of `C[N+](C)(C)CCOc1cnc2c3c(cccc13)C(=O)c1ccccc1-2`, the pIC50 (Acetylcholinesterase) was 6.03, the pIC50 (Cholinesterase) was 6.01 and the pIC50 (SH-SY5Y) was < 4.60. For the same compound, the inhibition [1] was 42%.

`COc1cc(/C=C/C(=O)CC(=O)/C=C/c2ccc(O)c(OC)c2)ccc1O` gave an inhibition [1] of 33.3%.

With `CN1CCN(CCCOc2ccc3c4c(nccc24)-c2ccccc2C3=O)CC1` the pIC50 (Acetylcholinesterase) was 6.39, the pIC50 (Cholinesterase) was 5.26 and the pIC50 (SH-SY5Y) was < 4.60. For the same compound, the inhibition [1] was 33.6%.

Compound `O=C(CCN1CCCC1)Nc1ccc2c(c1)C(=O)c1cccc3ccnc-2c13` has a pIC50 (SH-SY5Y) of 5.34 and an inhibition [1] of 69.8%.

Work on `CCN(CC)CCC(=O)Nc1ccc2c(c1)C(=O)c1cccc3ccnc-2c13` yielded a pIC50 (SH-SY5Y) of 5.40 and an inhibition [1] of 62.5%.

In the case of `C[N+]1(CCOc2cnc3c4c(cccc24)C(=O)c2ccccc2-3)CCCC1`, the pIC50 (Acetylcholinesterase) was 6.84, the pIC50 (Cholinesterase) was 6.52 and the pIC50 (SH-SY5Y) was < 4.60. For the same compound, the inhibition [1] was 48.8%.
